Assays:
Assay type in all cases: physicochemical
[1] = Dynamic Vapor Sorption (DVS); conditions: Cycle 3, sorption, 25° C.
[2] = Dynamic Vapor Sorption (DVS); conditions: for Change in Mass (%)-ref Desorption / Change in Mass (%)-ref Sorption / Change in Mass (%)-ref Hysteresis: DVS; for Change in Mass (%)-ref Desorption / Change in Mass (%)-ref Sorption: 25° C.
Method: Approximately, 10-20 mg of sample was placed into a mesh vapor sorption balance pan and loaded into a DVS Intrinsic dynamic vapor sorption balance by Surface Measurement Systems. The sample was subjected to a ramping profile from 40-90% relative humidity (RH) at 10% increments, maintaining the sample at each step until a stable weight had been achieved (dm/dt 0.004%, minimum step length 30 minutes, maximum step length 500 minutes) at 25° C. After completion of the sorption cycle, the sample was dried using the same procedure to 0% RH and then a second sorption cycle back to 40% RH. Two cycles were performed. The weight change during the sorption/desorption cycles were plotted, allowing for the hygroscopic nature of the sample to be determined. XRPD analysis was then carried out on any solid retained. The above technique was used to generate the images in FIG. 5, FIG. 6, FIG. 47 and FIG. 48.

[3] = Thermodynamic solubility in water at pH 4.2
Method: Thermodynamic solubility was carried out for Pattern 1, Pattern 2/6 mixture, Pattern 3, amorphous di-HCl salts and Pattern 7 in water at pH 4.2. All samples were prepared at 30 mg/mL. Initial observations were made. The samples were agitated at ambient temperature for ca. 24 hours. The samples were collected and observations made. Observed solids were isolated via centrifugation. The mother liquor from the filtered sample was analyzed by HPLC. The pH 4.3 solution was prepared by diluting glacial acetic acid (11.6 mL) to 100 mL in deionized water, then adding sodium acetate (1.07 g) and acetic acid solution (5.9 mL) preparing up to 500 mL with deionized water; then the pH was adjusted to 4.2. The above technique was used to generate the images in FIG. 60.

CN1CCN(c2ccc(Nc3ncc4cc5n(c4n3)C3(CCCCC3)CNC5=O)nc2)CC1 [Pattern 3, 2′-((5-(4-methylpiperazin-1-yl)pyridin-2-yl)amino)-7′,8′-dihydro-6′H-spiro[cyclohexane-1,9′-pyrazino[1′,2′:1,5]pyrrolo[2,3-d]pyrimidin]-6′-one]
Change in Mass (%)-ref Sorption ([1]; target RH 0%): 0.075%
Change in Mass (%)-ref Sorption ([1]; target RH 30%): 1.443%
Change in Mass (%)-ref Desorption ([2]; Cycle 1, desorption, target RH 0%): 0.000%
Change in Mass (%)-ref Desorption ([2]; Cycle 1, desorption, target RH 10%): 0.863%
Change in Mass (%)-ref Desorption ([2]; Cycle 1, desorption, target RH 20%): 1.274%
Change in Mass (%)-ref Desorption ([2]; Cycle 1, desorption, target RH 30%): 1.818%
Change in Mass (%)-ref Desorption ([2]; Cycle 1, desorption, target RH 40%): 2.223%
Change in Mass (%)-ref Desorption ([2]; Cycle 1, desorption, target RH 50%): 2.491%
Change in Mass (%)-ref Desorption ([2]; Cycle 1, desorption, target RH 60%): 2.727%
Change in Mass (%)-ref Desorption ([2]; Cycle 1, desorption, target RH 70%): 2.940%
Change in Mass (%)-ref Desorption ([2]; Cycle 1, desorption, target RH 80%): 3.171%
Change in Mass (%)-ref Desorption ([2]; Cycle 1, desorption, target RH 90%): 3.555%
Change in Mass (%)-ref Sorption ([2]; Cycle 1, sorption, target RH 40%): 2.516%
Change in Mass (%)-ref Sorption ([2]; Cycle 1, sorption, target RH 50%): 2.780%
Change in Mass (%)-ref Sorption ([2]; Cycle 1, sorption, target RH 60%): 2.970%
Change in Mass (%)-ref Sorption ([2]; Cycle 1, sorption, target RH 70%): 3.115%
Change in Mass (%)-ref Sorption ([2]; Cycle 1, sorption, target RH 80%): 3.288%
Change in Mass (%)-ref Sorption ([2]; Cycle 1, sorption, target RH 90%): 3.555%
Change in Mass (%)-ref Hysteresis ([2]; Cycle 1, target RH 40%): −0.292%
Change in Mass (%)-ref Hysteresis ([2]; Cycle 1, target RH 50%): −0.289%
Change in Mass (%)-ref Hysteresis ([2]; Cycle 1, target RH 60%): −0.242%
Change in Mass (%)-ref Hysteresis ([2]; Cycle 1, target RH 70%): −0.175%
Change in Mass (%)-ref Hysteresis ([2]; Cycle 1, target RH 80%): −0.117%
Change in Mass (%)-ref Desorption ([2]; Cycle 2, desorption, target RH 0%): 0.075%
Change in Mass (%)-ref Desorption ([2]; Cycle 2, desorption, target RH 10%): 0.885%
Change in Mass (%)-ref Desorption ([2]; Cycle 2, desorption, target RH 20%): 1.290%
Change in Mass (%)-ref Desorption ([2]; Cycle 2, desorption, target RH 30%): 1.711%
Change in Mass (%)-ref Desorption ([2]; Cycle 2, desorption, target RH 40%): 1.977%
Change in Mass (%)-ref Desorption ([2]; Cycle 2, desorption, target RH 50%): 2.171%
Change in Mass (%)-ref Desorption ([2]; Cycle 2, desorption, target RH 60%): 2.337%
Change in Mass (%)-ref Desorption ([2]; Cycle 2, desorption, target RH 70%): 2.510%
Change in Mass (%)-ref Desorption ([2]; Cycle 2, desorption, target RH 80%): 2.717%
Change in Mass (%)-ref Desorption ([2]; Cycle 2, desorption, target RH 90%): 3.093%
Change in Mass (%)-ref Sorption ([2]; Cycle 2, sorption, target RH 0%): 0.000%
Change in Mass (%)-ref Sorption ([2]; Cycle 2, sorption, target RH 10%): 0.831%
Change in Mass (%)-ref Sorption ([2]; Cycle 2, sorption, target RH 20%): 1.198%
Change in Mass (%)-ref Sorption ([2]; Cycle 2, sorption, target RH 30%): 1.468%
Change in Mass (%)-ref Sorption ([2]; Cycle 2, sorption, target RH 40%): 1.853%
Change in Mass (%)-ref Sorption ([2]; Cycle 2, sorption, target RH 50%): 2.092%
Change in Mass (%)-ref Sorption ([2]; Cycle 2, sorption, target RH 60%): 2.271%
Change in Mass (%)-ref Sorption ([2]; Cycle 2, sorption, target RH 70%): 2.461%
Change in Mass (%)-ref Sorption ([2]; Cycle 2, sorption, target RH 80%): 2.700%
Change in Mass (%)-ref Sorption ([2]; Cycle 2, sorption, target RH 90%): 3.093%
Change in Mass (%)-ref Hysteresis ([2]; Cycle 2, target RH 10%): 0.054%
Change in Mass (%)-ref Hysteresis ([2]; Cycle 2, target RH 20%): 0.091%
Change in Mass (%)-ref Hysteresis ([2]; Cycle 2, target RH 30%): 0.243%
Change in Mass (%)-ref Hysteresis ([2]; Cycle 2, target RH 40%): 0.124%
Change in Mass (%)-ref Hysteresis ([2]; Cycle 2, target RH 50%): 0.080%
Change in Mass (%)-ref Hysteresis ([2]; Cycle 2, target RH 60%): 0.066%
Change in Mass (%)-ref Hysteresis ([2]; Cycle 2, target RH 70%): 0.050%
Change in Mass (%)-ref Hysteresis ([2]; Cycle 2, target RH 80%): 0.018%
Change in Mass (%)-ref Sorption ([2]; Cycle 3, sorption, target RH 10%): 0.861%
Change in Mass (%)-ref Sorption ([2]; Cycle 3, sorption, target RH 20%): 1.198%
Change in Mass (%)-ref Sorption ([2]; Cycle 3, sorption, target RH 40%): 1.757%
moisture adsorbed (DVS) ([2]; at 40% RH, listed as Pattern 3 scale-up): 2.5 wt %
moisture adsorbed (DVS) ([2]; at 60% RH): 3.1 wt %
mass increase by DVS ([2]; at 90% RH): ca. 4%
moisture adsorbed (DVS) ([2]; at 90% RH, listed as Pattern 3 scale-up): 3.5 wt %
mass increase by DVS ([2]; between 0% and 90% RH): 4%
Observations at T = 24 hours ([3]; 30 mg/mL in water at pH 4.2, agitated at ambient temperature ca. 24 hours): Yellow solution
Observations at T = 0 hours ([3]; 30 mg/mL in water at pH 4.2, ambient temperature, T = 0 hours): Yellow solution (dissolved
